How the values were obtained:
[1] = tested on: TNF-α secretion in THP-1 cells; assay: Inhibition of LPS-stimulated TNF-α secretion in THP-1 cells (ELISA); type: cell-based; conditions: Homo sapiens, LPS 1 μg/mL, 4.5 hours
Method: TNF-α is a key cytokine involved in the inflammatory process of the listed autoimmune disease, such as rheumatoid arthritis, psoriatic arthritis, ankylosing spondylitis, psoriasis, Crohn's disease, ulcerative colitis, etc. In this test, TNF-α secretion was triggered by incubation with bacterial lipopolysaccharides (LPS). […] The 96-well plate was rotated at 2000 rpm for 5 minutes, and then 50 μL of supernatant was taken. The content of TNF-α in the supernatant was determined by human ELISA kit, and IC50 value of the compound was calculated by XL-Fit (table 4).

in vivo [2] = conditions: ICR, mouse, po
Method: On the day of administration, observations were made approximately 0.5, 1, 2, 4, and 6 hours after the first administration. During day 2 to day 6 of the observation period, observations were made twice a day, once in the morning and once in the afternoon.
Observations included but not limited to: general conditions, behavioral activities, gait and posture, eyes, mouth, nose, gastrointestinal tract, skin hair and urogenital tract.
Weight data were expressed as mean ±standard deviation. Levene's test and one-way analysis of variance were used for comparison between groups. If there was a difference, Dunnet t test was then used.
The maximum tolerated dose refers to the dose administered when the animal was dying.

in vivo [3] = conditions: rat, po; for half-life: SD; for AUC(0-t) / Cmax / Tmax: 25 mg/kg
Method: SD rats were used as the test animals.
Standard curve and preparation and processing of quality control samples:
Stock solution was diluted with 50% acetonitrile-water to obtain standard working solutions of 0.04, 0.10, 0.20, 0.40, 1.00, 2.00, 4.00 μg/mL, and quality control working solutions of 0.10, 1.00, 3.00 μg/mL. […] 200 μL of acetonitrile (containing 5 ng/mL of the internal standard loratadine) was added. After the vortex oscillation for 3 minutes, the solutions were centrifuged at 15000 rpm at 4° C. for 15 minutes. 100 μL of the supernatant was taken for LC-MS/MS analysis. WinNonlin ® 8.0 was used to calculate the experimental results.

IRAK4 kinase = IRAK4 kinase (Homo sapiens (Human), UniProt Q9NWZ3); assay: IRAK4 kinase inhibitory activity assay (mobility shift assay, Km ATP); type: biochemical; conditions: MSA, ATP 37 μM (Km ATP)
Chain of IRAK4 kinase (Q9NWZ3 whole entry): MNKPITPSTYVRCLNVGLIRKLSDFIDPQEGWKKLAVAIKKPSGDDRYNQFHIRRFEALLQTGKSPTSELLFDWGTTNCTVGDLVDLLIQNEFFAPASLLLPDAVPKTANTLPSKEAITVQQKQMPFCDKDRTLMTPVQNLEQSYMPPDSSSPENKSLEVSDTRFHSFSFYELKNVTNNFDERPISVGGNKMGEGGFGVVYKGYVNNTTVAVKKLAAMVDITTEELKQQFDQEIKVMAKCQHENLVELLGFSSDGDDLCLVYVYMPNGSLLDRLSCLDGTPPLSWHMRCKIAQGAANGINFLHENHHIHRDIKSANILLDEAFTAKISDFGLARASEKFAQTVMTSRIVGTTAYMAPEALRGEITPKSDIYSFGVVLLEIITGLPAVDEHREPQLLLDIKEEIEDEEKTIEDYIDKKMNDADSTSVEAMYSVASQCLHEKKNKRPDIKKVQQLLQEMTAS
Method: The inhibitory activity (IC50) of the compound on IRAK4 kinase under Km ATP was detected by mobility shift assay (MSA). Ten drug concentration gradients were set (initial concentration 1 μM, 3-fold dilution, 2 duplicate wells per concentration). […] After incubation at 28° C. for a period of time, 10 μL of termination buffer was added to terminate the reaction. The conversion rate data was read with Caliper, and then the conversion rate was converted into inhibition rate data. According to the inhibition rate data of each concentration, the IC50 of half inhibitory concentration was calculated by Logit method (Table 3).

hERG potassium channel = hERG potassium channel (Homo sapiens (Human), UniProt Q12809); assay: cell-based
Chain of hERG potassium channel (Q12809 whole entry): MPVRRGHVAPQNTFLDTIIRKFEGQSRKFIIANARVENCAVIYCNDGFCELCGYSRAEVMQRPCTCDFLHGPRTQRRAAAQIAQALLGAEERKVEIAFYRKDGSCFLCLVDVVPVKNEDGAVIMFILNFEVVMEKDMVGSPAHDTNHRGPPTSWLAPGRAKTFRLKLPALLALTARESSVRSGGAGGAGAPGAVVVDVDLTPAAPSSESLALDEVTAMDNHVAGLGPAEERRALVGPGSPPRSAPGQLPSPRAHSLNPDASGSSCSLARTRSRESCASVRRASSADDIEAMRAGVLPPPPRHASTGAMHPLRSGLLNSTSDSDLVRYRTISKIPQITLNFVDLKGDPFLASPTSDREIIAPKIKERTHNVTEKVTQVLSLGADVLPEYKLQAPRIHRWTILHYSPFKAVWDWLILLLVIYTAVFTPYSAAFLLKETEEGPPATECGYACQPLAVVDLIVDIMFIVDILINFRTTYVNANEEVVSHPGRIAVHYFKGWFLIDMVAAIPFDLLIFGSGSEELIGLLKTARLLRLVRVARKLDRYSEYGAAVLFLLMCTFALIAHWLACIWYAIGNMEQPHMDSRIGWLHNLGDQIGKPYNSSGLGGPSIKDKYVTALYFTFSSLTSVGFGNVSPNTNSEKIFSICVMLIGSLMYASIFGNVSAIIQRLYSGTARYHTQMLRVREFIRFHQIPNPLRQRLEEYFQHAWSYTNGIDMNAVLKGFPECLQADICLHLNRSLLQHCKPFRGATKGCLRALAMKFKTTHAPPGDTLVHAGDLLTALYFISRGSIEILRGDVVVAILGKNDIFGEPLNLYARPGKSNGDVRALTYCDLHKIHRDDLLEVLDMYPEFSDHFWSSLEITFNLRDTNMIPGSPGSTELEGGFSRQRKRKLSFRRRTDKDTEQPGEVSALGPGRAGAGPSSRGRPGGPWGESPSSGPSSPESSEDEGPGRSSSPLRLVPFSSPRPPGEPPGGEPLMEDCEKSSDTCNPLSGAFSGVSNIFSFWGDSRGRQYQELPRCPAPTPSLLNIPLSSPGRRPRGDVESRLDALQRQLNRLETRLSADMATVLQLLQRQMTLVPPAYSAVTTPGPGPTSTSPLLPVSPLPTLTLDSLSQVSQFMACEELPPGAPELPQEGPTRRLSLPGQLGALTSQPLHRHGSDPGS
From the text: The rapid activation of delayed rectifier outward potassium current (IKr) in humans is mainly mediated by hERG ion channel and participates in human myocardial cell repolarization. Drug blockade of this current will lead to the appearance of QT interval prolongation syndrome in clinical practice, which can easily induce acute arrhythmia and even sudden death.

Cc1cc(-c2nc(C(=O)Nc3cc4cn(CCS(=N)(=O)c5ccncc5)nc4cc3C(C)(C)O)co2)ccn1 (stereo not drawn) [Compound I-16]
IC50 [1]: 0.9 nM
MTD at 6 days (in vivo [2]): > 2000 mg/kg
half-life (in vivo [3]; in vivo): 6.3 h
AUC(0-t) (in vivo [3]; plasma): 9230 ng·h/mL
Cmax (in vivo [3]; plasma): 1360 ng/mL
Tmax (in vivo [3]; plasma): 6 h
IC50 (IRAK4 kinase): 0.5 nM

N=S(=O)(CCn1cc2cc(NC(=O)c3cccc(C(F)(F)F)n3)c(N3CCOCC3)cc2n1)c1ccnc2ccccc12 (stereo not drawn) [Compound I-11]
IC50 [1]: 0.8 nM
IC50 (IRAK4 kinase): 0.5 nM

COc1cc2nn(CCS(=N)(=O)c3ccc(F)cc3)cc2cc1NC(=O)c1cccc(C(F)(F)F)n1 (stereo not drawn) [Compound I-27]
IC50 [1]: 1.3 nM
IC50 (IRAK4 kinase): 0.7 nM

N=S(=O)(CCn1cc2cc(NC(=O)c3cnn4cccnc34)c(N3CCC(O)C3)cc2n1)c1ccccn1 (stereo not drawn) [Compound I-24]
IC50 [1]: 0.8 nM
MTD at 6 days (in vivo [2]): > 2000 mg/kg
half-life (in vivo [3]; in vivo): 5.5 h
AUC(0-t) (in vivo [3]; plasma): 8900 ng·h/mL
Cmax (in vivo [3]; plasma): 1420 ng/mL
Tmax (in vivo [3]; plasma): 6.2 h
IC50 (IRAK4 kinase): 0.8 nM

CC(C)(O)c1cc2nn(CCS(=N)(=O)c3ccccc3)cc2cc1NC(=O)c1cnn2cccnc12 (stereo not drawn) [Compound I-22]
IC50 [1]: 0.8 nM
IC50 (IRAK4 kinase): 0.3 nM

N=S(=O)(CCn1cc2cc(NC(=O)c3cccc(C(F)(F)F)n3)c(N3CCOCC3)cc2n1)c1ccncc1 (stereo not drawn) [Compound I-7]
IC50 [1]: 1.2 nM
MTD at 6 days (in vivo [2]): > 2000 mg/kg
half-life (in vivo [3]; in vivo): 5 h
AUC(0-t) (in vivo [3]; plasma): 8630 ng·h/mL
Cmax (in vivo [3]; plasma): 1500 ng/mL
Tmax (in vivo [3]; plasma): 5 h
IC50 (IRAK4 kinase): 0.5 nM

COc1cc2nn(CCS(=N)(=O)c3ccncc3)cc2cc1NC(=O)c1coc(-c2ccnc(C)c2)n1 (stereo not drawn) [Compound I-15]
IC50 [1]: 0.9 nM
half-life (in vivo [3]; in vivo): 6 h
AUC(0-t) (in vivo [3]; plasma): 8230 ng·h/mL
Cmax (in vivo [3]; plasma): 1380 ng/mL
Tmax (in vivo [3]; plasma): 5.9 h
IC50 (IRAK4 kinase): 0.7 nM

Cc1cc(-c2nc(C(=O)Nc3cc4cn(CCS(=N)(=O)c5ccncc5)nc4cc3N3CCC(O)C3)co2)ccn1 (stereo not drawn) [Compound I-18]
IC50 [1]: 1.4 nM
IC50 (IRAK4 kinase): 0.4 nM

Cc1cc2nn(CCS(=N)(=O)c3ccccc3)cc2cc1NC(=O)c1cccc(C(F)(F)F)n1 (stereo not drawn) [Compound I-13]
IC50 [1]: 1.1 nM
IC50 (IRAK4 kinase): 0.4 nM

CC(C)(O)c1cc2nn(CCS(=N)(=O)c3ccncc3)cc2cc1NC(=O)c1cccc(C(F)(F)F)n1 (stereo not drawn) [Compound I-6]
IC50 [1]: 0.6 nM
IC50 (IRAK4 kinase): 0.2 nM

COc1cc2nn(CCS(=N)(=O)c3ccccc3)cc2cc1NC(=O)c1coc(-c2ccnc(C)c2)n1 (stereo not drawn) [Compound I-28]
IC50 [1]: 0.7 nM
IC50 (IRAK4 kinase): 0.7 nM

N=S(=O)(CCn1cc2cc(NC(=O)c3cccc(C(F)(F)F)n3)c(N3CCOCC3)cc2n1)c1ccccc1 (stereo not drawn) [Compound I-3]
IC50 [1]: 0.6 nM
IC50 (IRAK4 kinase): 0.6 nM

COc1cc2nn(CCS(C)(=N)=O)cc2cc1NC(=O)c1cccc(C(F)(F)F)n1 (stereo not drawn) [MY-004-103, reference compound]
IC50 [1]: 125 nM
half-life (in vivo [3]; in vivo): 1.4 h
AUC(0-t) (in vivo [3]; plasma): 734 ng·h/mL
Cmax (in vivo [3]; plasma): 245 ng/mL
Tmax (in vivo [3]; plasma): 1.4 h

COc1cc2nn(CCS(=N)(=O)c3ccccn3)cc2cc1NC(=O)c1cccc(C(F)(F)F)n1 (stereo not drawn) [Compound I-19]
IC50 [1]: 0.9 nM
IC50 (IRAK4 kinase): 0.8 nM

N=S(=O)(CCn1cc2cc(NC(=O)c3cnn4cccnc34)c(N3CCOCC3)cc2n1)c1ncccn1 (stereo not drawn) [Compound I-33]
IC50 [1]: 1.4 nM
IC50 (IRAK4 kinase): 0.4 nM

Cc1cc(-c2nc(C(=O)Nc3cc4cn(CCS(=N)(=O)c5ccccn5)nc4cc3N3CCC(O)C3)co2)ccn1 (stereo not drawn) [Compound I-20]
IC50 [1]: 1.1 nM
half-life (in vivo [3]; in vivo): 4.5 h
AUC(0-t) (in vivo [3]; plasma): 7500 ng·h/mL
Cmax (in vivo [3]; plasma): 1400 ng/mL
Tmax (in vivo [3]; plasma): 4.9 h
IC50 (IRAK4 kinase): 0.6 nM

COc1cc2nn(CCS(=N)(=O)c3ccnc4ccccc34)cc2cc1NC(=O)c1cccc(C(F)(F)F)n1 (stereo not drawn) [Compound I-9]
IC50 [1]: 1 nM
half-life (in vivo [3]; in vivo): 4.8 h
AUC(0-t) (in vivo [3]; plasma): 8520 ng·h/mL
Cmax (in vivo [3]; plasma): 1420 ng/mL
Tmax (in vivo [3]; plasma): 5.5 h
IC50 (IRAK4 kinase): 0.2 nM

N=S(=O)(CCn1cc2cc(NC(=O)c3cnn4cccnc34)c(N3CCOCC3)cc2n1)c1ccnc2ccccc12 (stereo not drawn) [Compound I-23]
IC50 [1]: 1.1 nM
IC50 (IRAK4 kinase): 0.4 nM

Cc1cc(-c2nc(C(=O)Nc3cc4cn(CCS(=N)(=O)c5ccccc5)nc4cc3N3CCOCC3)co2)ccn1 (stereo not drawn) [Compound I-30]
IC50 [1]: 0.9 nM
IC50 (IRAK4 kinase): 0.6 nM

COc1cc2nn(CCS(=N)(=O)c3nccs3)cc2cc1NC(=O)c1cccc(C(F)(F)F)n1 (stereo not drawn) [Compound I-35]
IC50 [1]: 0.7 nM
IC50 (IRAK4 kinase): 0.7 nM

Cc1cc(-c2nc(C(=O)Nc3cc4cn(CCS(=N)(=O)c5ccncc5)nc4cc3N3CCOCC3)co2)ccn1 (stereo not drawn) [Compound I-17]
IC50 [1]: 1.2 nM
half-life (in vivo [3]; in vivo): 5.4 h
AUC(0-t) (in vivo [3]; plasma): 8200 ng·h/mL
Cmax (in vivo [3]; plasma): 1430 ng/mL
Tmax (in vivo [3]; plasma): 5.8 h
IC50 (IRAK4 kinase): 0.5 nM

COc1cc2nn(CCS(=N)(=O)c3ncco3)cc2cc1NC(=O)c1cccc(C(F)(F)F)n1 (stereo not drawn) [Compound I-36]
IC50 [1]: 1.5 nM
half-life (in vivo [3]; in vivo): 5.4 h
AUC(0-t) (in vivo [3]; plasma): 8490 ng·h/mL
Cmax (in vivo [3]; plasma): 1490 ng/mL
Tmax (in vivo [3]; plasma): 5.6 h
IC50 (IRAK4 kinase): 0.5 nM

N=S(=O)(CCn1cc2cc(NC(=O)c3cccc(C(F)(F)F)n3)c(N3CCC(O)C3)cc2n1)c1ccnc2ccccc12 (stereo not drawn) [Compound I-12]
IC50 [1]: 0.6 nM
IC50 (IRAK4 kinase): 0.3 nM

CC(C)(O)c1cc2nn(CCS(C)(=N)=O)cc2cc1NC(=O)c1cccc(C(F)(F)F)n1 (stereo not drawn) [MY-004-102, reference compound]
IC50 (hERG potassium channel): ~50000 nM
IC50 [1]: 169 nM
MTD at 6 days (in vivo [2]): 750 mg/kg
half-life (in vivo [3]; in vivo): 1.4 h
AUC(0-t) (in vivo [3]; plasma): 700 ng·h/mL
Cmax (in vivo [3]; plasma): 235 ng/mL
Tmax (in vivo [3]; plasma): 1.3 h

CN=S(=O)(CCn1cc2cc(NC(=O)c3cccc(C(F)(F)F)n3)c(OC)cc2n1)c1ccccc1 (stereo not drawn) [Compound I-25]
IC50 [1]: 1.2 nM
IC50 (IRAK4 kinase): 0.5 nM

N=S(=O)(CCn1cc2cc(NC(=O)c3cccc(C(F)(F)F)n3)c(N3CCC(O)C3)cc2n1)c1ccncc1 (stereo not drawn) [Compound I-8]
IC50 [1]: 0.9 nM
IC50 (IRAK4 kinase): 0.6 nM

N=S(=O)(CCn1cc2cc(NC(=O)c3cccc(C(F)(F)F)n3)c(N3CCC(O)C3)cc2n1)c1ccccc1 (stereo not drawn) [Compound I-4]
IC50 [1]: 1.3 nM
half-life (in vivo [3]; in vivo): 4.7 h
AUC(0-t) (in vivo [3]; plasma): 8530 ng·h/mL
Cmax (in vivo [3]; plasma): 1500 ng/mL
Tmax (in vivo [3]; plasma): 6 h
IC50 (IRAK4 kinase): 0.3 nM

CC(C)(O)c1cc2nn(CCS(C)(=O)=O)cc2cc1NC(=O)c1cccc(C(F)(F)F)n1 [BAY-1834845, reference compound]
Cmax (in vivo [3]; in vivo): 201 ng/mL

Cc1cc(-c2nc(C(=O)Nc3cc4cn(CCS(=N)(=O)c5ncccn5)nc4cc3C(C)(C)O)co2)ccn1 (stereo not drawn) [Compound I-32]
IC50 [1]: 1 nM
IC50 (IRAK4 kinase): 0.5 nM

CC(C)(O)CCn1cc2cc(NC(=O)c3cccc(C(F)(F)F)n3)c(C(C)(C)O)cc2n1 [BAY-1830839, reference compound]
Cmax (in vivo [3]; in vivo): 223 ng/mL

From US20240132473A1, “SULFOXIMIDE SUBSTITUTED INDAZOLE IRAK4 KINASE INHIBITOR, PREPARATION METHOD THEREOF AND USE THEREOF” (Shanghai Xunhe Pharmaceutical Technology Co. Ltd., priority 2021, published 2024)
